The assay concerns the target T1, LecB (Pseudomonas aeruginosa, UniProt Q9HYN5).
T1 construct: made in house; host or cells: Escherichia coli BL21(DE3)
Briefly: biochemical. To be noted: for n (stoichiometry, glycocluster molecules per lectin monomer): pH 7.5; for –ΔG / –ΔH / −TΔS: per mole of glycocluster; for α (relative potency compared to the monovalent compound) / β (relative potency per sugar unit): relative to αFuc-OMe. The assay is classed as binding. Here is the method: The resulting hGCs were tested in solution with lectins by Isothermal Titration Calorimetry (Table 1) and their binding properties were compared with homoclusters 15–20 (Berthet et al., [2013]; Thomas et al., [2015b]) displaying either 4 and 16 βGal or αFuc units attached with an oxime or a triazole linker (Figure 3). […] Experiments were performed in direct injection mode (i.e., ligand in syringe and protein in cell) to minimize aggregation problems.
All chemical reagents were purchased from Aldrich (Saint Quentin Fallavier, France) or Acros (Noisy-Le-Grand, France). All protected amino acids and Fmoc-Gly-Sasrin® resin was obtained from Advanced ChemTech Europe (Brussels, Belgium). For peptides and glycopeptides, analytical RP-HPLC was performed on Waters system equipped with a Waters 2695 separations module and a Waters 2487 Dual Absorbance UV/Visible Detector. Analysis was carried out at 1.0 mL/min (EC 125/3 nucleosil 300-5 C18) with UV monitoring at 214 nm and 250 nm using a linear A–B gradient (buffer A: 0.09% CF3CO2H in water; buffer B: 0.09% CF3CO2H in 90% acetonitrile). Purifications were carried out at 22.0 mL/min (VP 250/21 nucleosil 100-7 C18) with UV monitoring at 214 nm and 250 nm using a linear A–B gradient. HRMS and ESI-MS and HRMS spectra of peptides and glycopeptides were measured on an Esquire 3000 spectrometer from Bruker. Lectins LecA and LecB were produced in recombinant form in Escherichia coli BL21(DE3) as described previously (Mitchell et al., [2005]; Blanchard et al., [2008]).
Other compounds were assayed with a VP-ITC isothermal titration calorimeter (Microcal). The experiments were carried out at 25°C. All glycocompounds and lectins LecB and LecA were dissolved in the same buffer composed of 20 mM Tris with 100 mM NaCl and 0.1 mM CaCl2 at pH 7.5. For PEAQ-ITC, the lectins were placed in the microcalorimeter cell (200 μL) at concentrations varying from 35 to 70 μM. […] For VP-ITC, the microcalorimeter cell (1.447 mL) contained the lectins with concentrations between 30 and 100 μM. A total of 30 injections of 10 μL were performed intervals of 5 min while stirring at 310 rpm with glycoclusters concentrations varying from […]. The experimental data were fitted to a theoretical titration curve using the Microcal PEAQ-ITC analysis software, with ΔH (enthalpy change), Ka (association constant), and N (number of binding sites per monomer) as adjustable parameters. Dissociation constant (Kd), free energy change (ΔG), and entropy contributions (TΔS) were derived from the previous ones. Two or three independent titrations were performed for each ligand tested.

Setting [1] is: ITC, 25°C, 20 mM Tris, 100 mM NaCl, 0.1 mM CaCl2, pH 7.5, ligand in syringe.

We go through three molecules from paper PMC6783499, “Heteroglycoclusters With Dual Nanomolar Affinities for the Lectins LecA and LecB From Pseudomonas aeruginosa” (Frontiers in Chemistry, 2019).

T1 sequence (Q9HYN5 entry or part of it): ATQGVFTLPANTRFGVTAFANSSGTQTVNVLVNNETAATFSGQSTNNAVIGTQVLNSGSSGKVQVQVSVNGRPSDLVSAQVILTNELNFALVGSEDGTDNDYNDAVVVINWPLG

Broadly, the Kd is the constant that tells how readily two partners part at equilibrium. High values mean weaker binding, low ones tighter binding. Consider `C[C@@H]1NC(=O)[C@H](CCCCNC(=O)/C=N/O[C@@H]2O[C@@H](C)[C@@H](O)[C@@H](O)[C@@H]2O)NC(=O)CNC(=O)[C@@H]2CCCN2C(=O)[C@H](CCCCNC(=O)/C=N/O[C@@H]2O[C@@H](C)[C@@H](O)[C@@H](O)[C@@H]2O)NC(=O)[C@H](CCCCNC(=O)CO/N=C/C(=O)NCCCC[C@@H]2NC(=O)CNC(=O)[C@@H]3CCCN3C(=O)[C@H](CCCCNC(=O)/C=N/OCC(=O)NCCCC[C@@H]3NC(=O)[C@H](CCCCNC(=O)/C=N/O[C@@H]4O[C@@H](C)[C@@H](O)[C@@H](O)[C@@H]4O)NC(=O)CNC(=O)[C@@H]4CCCN4C(=O)[C@H](CCCCNC(=O)/C=N/O[C@@H]4O[C@@H](C)[C@@H](O)[C@@H](O)[C@@H]4O)NC(=O)[C@H](C)NC(=O)[C@H](CCCCNC(=O)/C=N/O[C@@H]4O[C@@H](C)[C@@H](O)[C@@H](O)[C@@H]4O)NC(=O)CNC(=O)[C@@H]4CCCN4C(=O)[C@H](CCCCNC(=O)/C=N/O[C@@H]4O[C@@H](C)[C@@H](O)[C@@H](O)[C@@H]4O)NC3=O)NC(=O)[C@H](CCCCN)NC(=O)[C@H](CCCCNC(=O)CO/N=C/C(=O)NCCCC[C@@H]3NC(=O)[C@H](CCCCn4cc(CO[C@H]5O[C@H](CO)[C@@H](O)[C@H](O)[C@@H]5O)nn4)NC(=O)CNC(=O)[C@@H]4CCCN4C(=O)[C@H](CCCCn4cc(CO[C@H]5O[C@H](CO)[C@@H](O)[C@H](O)[C@@H]5O)nn4)NC(=O)[C@H](C)NC(=O)[C@H](CCCCn4cc(CO[C@H]5O[C@H](CO)[C@@H](O)[C@H](O)[C@@H]5O)nn4)NC(=O)CNC(=O)[C@@H]4CCCN4C(=O)[C@H](CCCCn4cc(CO[C@H]5O[C@H](CO)[C@@H](O)[C@H](O)[C@@H]5O)nn4)NC3=O)NC(=O)CNC(=O)[C@@H]3CCCN3C(=O)[C@H](CCCCNC(=O)CO/N=C/C(=O)NCCCC[C@@H]3NC(=O)[C@H](CCCCn4cc(CO[C@H]5O[C@H](CO)[C@@H](O)[C@H](O)[C@@H]5O)nn4)NC(=O)CNC(=O)[C@@H]4CCCN4C(=O)[C@H](CCCCn4cc(CO[C@H]5O[C@H](CO)[C@@H](O)[C@H](O)[C@@H]5O)nn4)NC(=O)[C@H](C)NC(=O)[C@H](CCCCn4cc(CO[C@H]5O[C@H](CO)[C@@H](O)[C@H](O)[C@@H]5O)nn4)NC(=O)CNC(=O)[C@@H]4CCCN4C(=O)[C@H](CCCCn4cc(CO[C@H]5O[C@H](CO)[C@@H](O)[C@H](O)[C@@H]5O)nn4)NC3=O)NC(=O)[C@H](C)NC2=O)NC(=O)[C@H](CCCCNC(=O)/C=N/O[C@@H]2O[C@@H](C)[C@@H](O)[C@@H](O)[C@@H]2O)NC(=O)CNC(=O)[C@@H]2CCCN2C(=O)[C@H](CCCCNC(=O)/C=N/O[C@@H]2O[C@@H](C)[C@@H](O)[C@@H](O)[C@@H]2O)NC1=O` [Compound 12], for which the “α (relative potency compared to the monovalent compound)” value came out at 5.1. Besides, the “–ΔH (binding enthalpy)” value (ITC) is 50.7 kcal/mol. In addition, under “ITC, 25°C”, the “n (stoichiometry, glycocluster molecules per lectin monomer)” value is on record as 0.08; the “–ΔG” value was 9.66 kcal/mol; the “–ΔH” value was found to be 50.43 ± 0.72 kcal/mol; the “−TΔS” value stood at 40.77 kcal/mol. The molecule further displayed a dissociation constant (Kd) under setting [1] of 85 ± 16 nM.
Turning to `C[C@@H]1NC(=O)[C@H](CCCCn2cc(CO[C@@H]3O[C@@H](C)[C@@H](O)[C@@H](O)[C@@H]3O)nn2)NC(=O)CNC(=O)[C@@H]2CCCN2C(=O)[C@H](CCCCn2cc(CO[C@@H]3O[C@@H](C)[C@@H](O)[C@@H](O)[C@@H]3O)nn2)NC(=O)[C@H](CCCCN)NC(=O)[C@H](CCCCn2cc(CO[C@@H]3O[C@@H](C)[C@@H](O)[C@@H](O)[C@@H]3O)nn2)NC(=O)CNC(=O)[C@@H]2CCCN2C(=O)[C@H](CCCCn2cc(CO[C@@H]3O[C@@H](C)[C@@H](O)[C@@H](O)[C@@H]3O)nn2)NC1=O` [Compound 16], the “α (relative potency compared to the monovalent compound)” value is listed as 1.2 and the “β (relative potency per sugar unit)” value was found to be 0.3. For the same molecule, where the note is “ITC, 25°C”, the “n (stoichiometry, glycocluster molecules per lectin monomer)” value is 0.19; the “–ΔG” value worked out at 8.8 kcal/mol; the “–ΔH” value stood at 28.56 ± 0.24 kcal/mol; the “−TΔS” value is 19.8 kcal/mol. For the same molecule, the Kd under setting [1] was 367 ± 26 nM. Also, the Kd (ITC, rounded value) came out at 300 nM.
`C[C@@H]1NC(=O)[C@H](CCCCNC(=O)/C=N/OCC(=O)NCCCC[C@@H]2NC(=O)[C@H](CCCCNC(=O)/C=N/O[C@@H]3O[C@@H](C)[C@@H](O)[C@@H](O)[C@@H]3O)NC(=O)CNC(=O)[C@@H]3CCCN3C(=O)[C@H](CCCCNC(=O)/C=N/O[C@@H]3O[C@@H](C)[C@@H](O)[C@@H](O)[C@@H]3O)NC(=O)[C@H](C)NC(=O)[C@H](CCCCNC(=O)/C=N/O[C@@H]3O[C@@H](C)[C@@H](O)[C@@H](O)[C@@H]3O)NC(=O)CNC(=O)[C@@H]3CCCN3C(=O)[C@H](CCCCNC(=O)/C=N/O[C@@H]3O[C@@H](C)[C@@H](O)[C@@H](O)[C@@H]3O)NC2=O)NC(=O)CNC(=O)[C@@H]2CCCN2C(=O)[C@H](CCCCNC(=O)/C=N/OCC(=O)NCCCC[C@@H]2NC(=O)[C@H](CCCCNC(=O)/C=N/O[C@@H]3O[C@@H](C)[C@@H](O)[C@@H](O)[C@@H]3O)NC(=O)CNC(=O)[C@@H]3CCCN3C(=O)[C@H](CCCCNC(=O)/C=N/O[C@@H]3O[C@@H](C)[C@@H](O)[C@@H](O)[C@@H]3O)NC(=O)[C@H](C)NC(=O)[C@H](CCCCNC(=O)/C=N/O[C@@H]3O[C@@H](C)[C@@H](O)[C@@H](O)[C@@H]3O)NC(=O)CNC(=O)[C@@H]3CCCN3C(=O)[C@H](CCCCNC(=O)/C=N/O[C@@H]3O[C@@H](C)[C@@H](O)[C@@H](O)[C@@H]3O)NC2=O)NC(=O)[C@H](CCCCN)NC(=O)[C@H](CCCCNC(=O)/C=N/OCC(=O)NCCCC[C@@H]2NC(=O)[C@H](CCCCNC(=O)/C=N/O[C@@H]3O[C@@H](C)[C@@H](O)[C@@H](O)[C@@H]3O)NC(=O)CNC(=O)[C@@H]3CCCN3C(=O)[C@H](CCCCNC(=O)/C=N/O[C@@H]3O[C@@H](C)[C@@H](O)[C@@H](O)[C@@H]3O)NC(=O)[C@H](C)NC(=O)[C@H](CCCCNC(=O)/C=N/O[C@@H]3O[C@@H](C)[C@@H](O)[C@@H](O)[C@@H]3O)NC(=O)CNC(=O)[C@@H]3CCCN3C(=O)[C@H](CCCCNC(=O)/C=N/O[C@@H]3O[C@@H](C)[C@@H](O)[C@@H](O)[C@@H]3O)NC2=O)NC(=O)CNC(=O)[C@@H]2CCCN2C(=O)[C@H](CCCCNC(=O)/C=N/OCC(=O)NCCCC[C@@H]2NC(=O)[C@H](CCCCNC(=O)/C=N/O[C@@H]3O[C@@H](C)[C@@H](O)[C@@H](O)[C@@H]3O)NC(=O)CNC(=O)[C@@H]3CCCN3C(=O)[C@H](CCCCNC(=O)/C=N/O[C@@H]3O[C@@H](C)[C@@H](O)[C@@H](O)[C@@H]3O)NC(=O)[C@H](C)NC(=O)[C@H](CCCCNC(=O)/C=N/O[C@@H]3O[C@@H](C)[C@@H](O)[C@@H](O)[C@@H]3O)NC(=O)CNC(=O)[C@@H]3CCCN3C(=O)[C@H](CCCCNC(=O)/C=N/O[C@@H]3O[C@@H](C)[C@@H](O)[C@@H](O)[C@@H]3O)NC2=O)NC1=O` [Compound 19]: the “α (relative potency compared to the monovalent compound)” value is given as 9.8 and the “β (relative potency per sugar unit)” value is 0.6. For the same molecule, the “binding improvement on multimerisation of tetravalent to hexadecavalent dendrimer” value (19 versus tetravalent 15) came to 10 fold. Under “ITC, 25°C”, the “n (stoichiometry, glycocluster molecules per lectin monomer)” value turned out to be 0.06; the “–ΔG” value turned out to be 10 kcal/mol; the “–ΔH” value was 76.72 ± 3.35 kcal/mol; the “−TΔS” value turned out to be 66.68 kcal/mol. The same molecule gave a Kd under setting [1] of 44 ± 5 nM. Besides, the “binding to LecB in words” value (abstract) was “nanomolar affinity”.
